According to ChEMBL document CHEMBL4825699, “Metabolic and conformational stabilization of a VEGF-mimetic beta-hairpin peptide by click-chemistry” (Eur J Med Chem, 2021):
The source made the active and inactive calls. No cut-off for these calls is given here.

Legend:
[1] = tested on: HUVEC; assay: Cytotoxicity against human HUVEC assessed as reduction in cell viability at 50 nM measured after 48 hrs by CyQuant NF Cell Proliferation assay; format: cell-based; conditions: 0.05 µM
[2] = tested on: HUVEC; assay: Binding affinity to VEGFR in human HUVEC assessed as induction of cell proliferation measured after 24 to 48 hrs by CyQuant NF Cell Proliferation assay; conditions: dose 25-50 nM, time 24-48 hrs
[3] = tested on: HUVEC; assay: Binding affinity to VEGFR in human HUVEC assessed as induction of cell proliferation at 25 to 50 nM measured after 48 hrs by CyQuant NF Cell Proliferation assay relative to control; conditions: dose 25-50 nM
[4] = tested on: HUVEC; assay: Binding affinity to VEGFR in human HUVEC assessed as induction of cell proliferation at 50 nM measured after 48 hrs in presence of 250 nM VEGFR1D2 by CyQuant NF Cell Proliferation assay
[5] = tested on: HUVEC; assay: Pro-angiogenic activity in human HUVEC assessed as organization into capillary network formation by measuring increase in branch points number counting at 50 nM measured after 6 hrs by inverted microscopy relative to HPLW; format: functional
[6] = Metabolic stability of the compound in 50% human serum incubated for 120 mins by RP-HPLC analysis; format: ADME, cell-free; conditions: read-out: Stabilty
[7] = tested on: HUVEC; assay: Binding affinity to VEGFR in human HUVEC assessed as induction of cell proliferation at 25 to 50 nM measured after 48 hrs by CyQuant NF Cell Proliferation assay relative to HPLW; conditions: dose 25-50 nM
[8] = tested on: HUVEC; assay: Binding affinity to VEGFR in human HUVEC assessed as induction of cell proliferation at 25 to 50 nM measured after 48 hrs by CyQuant NF Cell Proliferation assay relative to Ac-HPLW-NH2; conditions: dose 25-50 nM
[9] = tested on: HUVEC; assay: Pro-angiogenic activity in human HUVEC assessed as organization into capillary network formation by measuring increase in branch points number counting at 50 nM measured after 6 hrs by inverted microscopy relative to Ac-HPLW-NH2; format: functional
[10] = Metabolic stability of the compound in 50% human serum assessed as half life by RP-HPLC analysis; format: ADME, cell-free
[11] = Metabolic stability of the compound in 50% human serum assessed as drug degradation incubated for 120 mins by RP-HPLC analysis; format: ADME, cell-free; conditions: read-out: Drug degradation

Compound	Activity [1]	Activity [2]	Activity [3]	Activity [4]	Activity [5]	remaining at 2 h [6]	Activity [7]	Activity [8]	Activity [9]	half-life [10]	metabolised at 2 h [11]
CC[C@H](C)[C@@H]1NC(=O)[C@@H](NC(=O)[C@H](CC(C)C)NC(=O)[C@H](CC(C)C)NC(=O)[C@H](CCC(N)=O)NC(=O)[C@H](CCCCN)NC(C)=O)CCCc2cn(nn2)CCC[C@@H](C(=O)N[C@@H](Cc2ccc(O)cc2)C(=O)N[C@@H](Cc2c[nH]c3ccccc23)C(=O)N[C@H](C(=O)N[C@@H](CO)C(N)=O)[C@@H](C)O)NC(=O)[C@@H]2CCCN2C(=O)[C@H](CCCNC(=N)N)NC(=O)[C@H](CC(=O)O)NC(=O)CNC(=O)[C@H](CO)NC(=O)[C@H](CCCNC(=N)N)NC1=O	Non-Toxic	Toxic	92%	inactive	13%	100%	37%	30%	28%		
Ac-KQLLWIRSGDRPWYYTS-NH2	Non-Toxic	Dose-Dependent Effect		inactive						25 min	100%
H-KQLLWIRSGDRPWYYTS-OH	Non-Toxic	Dose-Dependent Effect		inactive						25 min	100%
